Laboratory results: PubChem BioAssay AID179 (DTP/NCI, 2004)
pEC50, pIC50: −log10 of the molar value. Values joined by “and” are separate entries in the source; they are usually repeats but may differ in a detail not shown here. Identical values can stand only once. Active and inactive are the calls of the source.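 Rule for the calls: active = compounds giving half or more protection of infected cells from virus-caused growth loss, again on retest; inactive = the rest.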

Test system: CEM cells HIV-1 protection, formazan growth assay
Assay: NCI AIDS Antiviral Assay
Details: for pIC50: measured here: growth of uninfected CEM cells
Procedure, shortened: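 Protection of CEM cells against HIV-1 measured as cell growth via soluble formazan read-out, with five concentrations tested on both infected and uninfected cells; failure to protect may reflect toxicity.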

SMILES | pEC50 | pIC50 | outcome
COc1ccc(N=C2C(=S)N(c3ccc(OC)cc3)/C(=N/S(=O)(=O)c3ccccc3)N2c2ccccc2)cc1 | < 4.70 | 6.41 | –
O=c1n(-c2ccccc2)c(=O)n2n1C1C3C4C5C1C5C2C43 (stereo not drawn) | < 3.70 | < 3.70 | –
CCCC1(N2C(=O)c3ccc4c5c(ccc(c35)C2=O)N(C2(CCC)CCCCC2)C4=O)CCCCC1 | < 4.00 | < 4.00 | –
N#CC(C#N)=C(N)/C(C#N)=C/c1ccc2[nH]ccc2c1 | < 3.70 | < 3.70 | –
C1CCC2(CC1)SSC1(CCCCC1)S2 | < 3.70 | 3.96 | –
CCCCCCCCCCCC1CN=C(CCCCC2=NCC(CCCCCCCCCCC)N2)N1 (stereo not drawn) | < 5.15 | < 5.15 | –
CCCCCCCCCCCCC(Br)C(=O)OCC1OC(n2cc(C)c(=O)[nH]c2=O)CC1N=[N+]=[N-] (stereo not drawn) | 7.01 | 5.47 | –
CC1CCCN(CC(O)CN2CCN(CC(O)CN3CCCC(C)C3)CC2)C1 (stereo not drawn) | < 4.88 | < 4.88 | –
O=C1CCCC2=C1CC1=C(CCCC1=O)N2c1cccc2ccccc12 | 4.31 | 3.76 | –
O=C1NC(N2CCCCC2)=N/C1=C\c1ccccc1O | < 3.70 | 3.76 | –
CC(C)(C)OC(=O)C1/C(=C/CBr)CN1C(=O)OC(C)(C)C (stereo not drawn) | < 3.70 | 5.40 | –
COc1ccc(-c2[nH]c(=O)n(C3OC(CO)C(O)C(O)C3O)c(=O)c2C#N)cc1 (stereo not drawn) | < 3.70 and 3.73 | < 3.70 | –
COC(=O)C(Cc1ccccc1I)C1=CCC2(CC1)OCCO2 (stereo not drawn) | < 3.70 | 4.31 | –
Cc1c(S(=O)(=O)c2ccccc2)c(N)n(Cc2ccccc2)c1C | < 3.70 | 4.13 | –
NC(=O)COc1c(Br)cc(Br)cc1Br | < 4.46 | < 4.46 | –
Cc1cn(C2CC(N=[N+]=[N-])C(C(=O)O)O2)c(=O)[nH]c1=O (stereo not drawn) | 4.93 | < 3.70 | –
Nn1c(SCC(=O)NCc2ccccc2)nc2ccccc2c1=O | 4.90 | 4.02 | –
CCOC(=O)c1ccc(CS(=O)(=O)c2ccc(OC)cc2)cc1 | < 4.25 | < 4.25 | –
CC(C)Oc1ccc(CNC2=NCCO2)c2ccccc12 | < 3.70 | 4.75 | –
O=C(O)C(=O)CC(=O)c1ccc(Cl)cc1 | < 3.70 | < 3.70 | –
C=C1CC(C)(COc2ccc3c(C)c(Cl)c(=O)oc3c2)OC1=O (stereo not drawn) | < 5.70 | 6.21 | –
Cc1cc(Cl)ccc1NC(=O)CCCC(=O)C1CCCC1=O (stereo not drawn) | – | – | inactive

SMILES | pEC50 | pIC50 | outcome
COC(=O)c1c(C)cccc1C1CN=NC12Cc1ccccc1C2=O (stereo not drawn) | 4.56 | 3.99 | –
O=c1c2ccccc2[nH]c(=S)n1-c1ccc(Cl)cc1 | < 3.70 | < 3.70 | –
CC(=O)OCC1OC(n2cc(I)c(=O)[nH]c2=O)C(OC(C)=O)C(OC(C)=O)C1OC(C)=O (stereo not drawn) | < 3.36 | 3.55 | –
c1ccc(Cc2cccc3cc(-c4ccc(-c5ccccc5)cc4)[nH]c23)cc1 | < 3.70 | 3.78 | –
COC(=O)C(CCc1ccccc1I)C1=CCC2(CC1)OCCO2 (stereo not drawn) | < 3.70 | 4.42 | –
COc1cc(NC(C)=O)c(OC)cc1Cl | – | – | inactive
O=C1NC(N/N=C\C(O)C(O)C(O)C(O)CO)=N/C1=C/c1ccccc1 (stereo not drawn) | < 3.70 | 3.98 and 4.50 and < 3.70 | –
C=C(C)C12CC(C)C34OC(CCCCCCCCCCC)(OC1C3C1OC1(CO)C(O)C1(O)C(=O)C(C)=CC14C)O2 (stereo not drawn) | – | – | active
Cc1cc(C)c(NS(=O)c2cccc([N+](=O)[O-])c2)c(C)c1 (stereo not drawn) | < 4.51 | < 4.51 | –
COC1(OC)CCCCCCCCC(OC)(OC)CCCCCCCC1 | < 3.70 | < 3.70 | –
CN1CN(c2ccccc2)C2(CCN(C3Nc4ccccc4O3)CC2)C1=O (stereo not drawn) | < 3.70 | 4.13 | –
NC(=O)CNC(=O)c1ccccc1SC(=O)CCCCC[n+]1ccccc1 | 5.85 | 4.42 | –
c1ccc(CN2COc3c(ccc4ccccc34)C2)cc1 | < 3.70 | 4.26 | –
O=C1NN=C(c2ccccc2)SC1c1ccccc1 (stereo not drawn) | < 3.70 | < 3.70 | –
O=C1NC(N2CCOCC2)=N/C1=C\c1ccccc1 | < 3.70 | < 3.70 | –
Cc1ccc(S(=O)(=O)OC2C(O)C(CO)OC2n2c(Br)c(C(N)=O)c3c(N)ncnc32)cc1 (stereo not drawn) | < 3.70 | < 3.70 | –
CN(C)c1ccc(-c2nnc3c(c(=O)n(C)c(=O)n3C)[n+]2[O-])cc1 | < 3.70 | 4.72 | –
CC(C)(C)C(=O)O[C@H]1C=C[C@@H](O)[C@@H]2[C@H]1[C@@H]1C=C[C@H]2C1 | < 3.70 | 4.64 | –
C=CCCC1(O)C(O)C(CO)O[C@H](O[C@@]2(CO)OC(CO)C(O)C2O)C1O (stereo partly drawn) | – | – | inactive
O=c1[nH]c2ccccc2c(O)c1/C=N/C(=S)NC1CCCCC1 | < 3.70 | < 3.70 | –
CO/C=C/C=C(\C#N)C(=O)OC | 3.76 | < 3.70 | –
O=C1C2CCCCC2C(=O)N1n1c(-c2ccccc2)n[nH]c1=O (stereo not drawn) | < 3.70 | < 3.70 | –

SMILES | pEC50 | pIC50 | outcome
C1CSCCCSCCSCCCSC1 | < 4.74 | < 4.74 | –
CCCCCCCCCCCCCCCCCCNC(=S)/N=C\C(C(=O)Nc1ccccc1C)=C(/C)O | < 3.70 | 3.94 | –
CCc1n[nH]c(=O)[nH]1 | < 3.70 | < 3.70 | –
Cc1ccc(-c2c(C#N)c(-c3ccccc3)n(NS(=O)(=O)c3ccc(C)cc3)c(=O)c2C#N)cc1 | < 3.70 | 4.17 | –
O=C1/C(=C\c2cccc(Oc3ccccc3)c2)SC(c2ccccc2)N1Cc1ccccc1 (stereo not drawn) | < 4.70 | 5.89 | –
COC(=O)c1ccc(C(=O)OC)c2nc3cc(C)ccc3nc12 | < 3.66 | < 3.66 | –
CCCCCC=C(c1cc(Cl)c(OC)c(-c2nc(C)no2)c1)c1cc(Cl)c(OC)c(-c2nc(C)no2)c1 | < 3.70 | 4.99 | –
CC(C)CN(CC(C)C)CN1C(=O)/C(=C/c2ccc([N+](=O)[O-])cc2)SC1=S | < 3.70 | 4.80 | –
N#CCCC1C(=O)CCCC1=O | < 3.70 | < 3.70 | –
CNC(=S)NC(=S)N(C)C | – | – | inactive
C/C(=N\NC(=S)N(C)CCN(C)C(=S)N/N=C(\C)c1ccccn1)c1ccccn1 | < 3.70 | 5.61 | –
CCC(Oc1ccc(OC)c2ccccc(=O)c12)C(=O)O (stereo not drawn) | – | – | inactive
CCO/C=N/c1[nH]c(C)c(Cc2ccccc2)c1C#N | < 4.30 | < 4.30 | –
Nc1ccc(C(=O)N/C(=C\c2ccc3c(c2)OCO3)c2nc3[nH]c(=S)[nH]c(=O)c3[nH]2)cc1 | – | – | inactive
O=C1NC(N2CCCC(CO)C2)=N/C1=C\c1ccc(O)cc1 (stereo not drawn) | < 3.70 | 3.94 | –
CC(=O)Oc1c2oc3ccc(Cl)cc3c(=O)c2c(O)c2ccsc12 | < 3.70 | < 3.70 | –
C=C(c1ccccc1)[C@@]1(O)CC[C@@H]1N(CC#N)Cc1ccccc1 | – | – | inactive
COc1cc2c(c(OC)c1OC)-c1cc3c(cc1C(=O)CC(C(=O)O)(C(=O)O)C2)OCO3 | < 3.25 | < 3.25 | –
O=C(CC1C(=O)Nc2ccccc2S1=O)Nc1cccc(Cl)c1 (stereo not drawn) | < 4.68 | < 4.68 | –
O=c1oc2c3ccccc3c3ccccc3c2c2oc3c4ccccc4c4ccccc4c3c12 | 7.68 | 6.02 | –
O=C1C=C(Br)c2c(-c3ccccc3)oc3cccc1c23 | – | – | inactive
Nc1ccc(S(=O)(=O)Cc2ccc(C(=O)O)cc2)cc1 | < 3.49 | < 3.49 | –
